Reference: the supplement of paper PMC10599287

Assays:
[1] = compound: O=C(NOCCO)c1ccc2cncn2c1Nc1ccc(I)cc1F [GDC-0623]; test: absolute IC70 (antiproliferative, propidium iodide); higher = less potent; conditions: exposure time: 4 days
Procedure: (§1)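 Modified propidium iodide survival/proliferation assay in 294 human tumor cell lines (2D monolayer for solid tumors, suspension for hematologic lines) after 4 days of continuous exposure to 10 concentrations in half-log steps from 0.001 to 30 µM. Absolute IC70 was fitted by four-parameter nonlinear regression of T/C × 100 (%) values; 30 µM is the top dose.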

[2] = compound: CCNC(=O)C#Cc1ccc2c(C(=Nc3ccc(CN(C)C)cc3)c3ccccc3)c(O)[nH]c2c1; test: as above; conditions: exposure time: 4 days
Procedure: as §1

Test System: 22RV1
- absolute IC70 [1]: > 30000 nM
- absolute IC70 [2]: 616 nM

Test System: 786-O
- absolute IC70 [1]: > 30000 nM
- absolute IC70 [2]: 1170 nM

Test System: A172
- absolute IC70 [1]: 1590 nM
- absolute IC70 [2]: 252 nM

Test System: A204
- absolute IC70 [1]: > 30000 nM
- absolute IC70 [2]: 614 nM

Test System: A427
- absolute IC70 [1]: > 30000 nM
- absolute IC70 [2]: 283 nM

Test System: A498
- absolute IC70 [1]: > 30000 nM
- absolute IC70 [2]: 4340 nM

Test System: A2780
- absolute IC70 [1]: 24400 nM
- absolute IC70 [2]: 546 nM

Test System: A-253
- absolute IC70 [1]: > 30000 nM
- absolute IC70 [2]: > 30000 nM

Test System: A-431
- absolute IC70 [1]: 563 nM
- absolute IC70 [2]: 30 nM

Test System: ACHN
- absolute IC70 [1]: > 30000 nM
- absolute IC70 [2]: 765 nM

Test System: BT-474
- absolute IC70 [1]: > 30000 nM
- absolute IC70 [2]: 4060 nM

Test System: BT-549
- absolute IC70 [1]: > 30000 nM
- absolute IC70 [2]: 1780 nM

Test System: BXF_1036
- absolute IC70 [1]: 8 nM
- absolute IC70 [2]: 115 nM

Test System: BXF_1228
- absolute IC70 [1]: > 30000 nM
- absolute IC70 [2]: 3230 nM

Test System: BXF_1352
- absolute IC70 [1]: 11 nM
- absolute IC70 [2]: 45 nM

Test System: BXF_5637
- absolute IC70 [1]: 359 nM
- absolute IC70 [2]: 20 nM

Test System: CAKI-1
- absolute IC70 [1]: > 30000 nM
- absolute IC70 [2]: 2360 nM

Test System: CAL-27
- absolute IC70 [1]: 14 nM
- absolute IC70 [2]: 250 nM

Test System: CAL-33
- absolute IC70 [1]: 517 nM
- absolute IC70 [2]: 346 nM

Test System: CAL-51
- absolute IC70 [1]: > 30000 nM
- absolute IC70 [2]: 61 nM

Test System: CCRF-CEM
- absolute IC70 [1]: > 30000 nM
- absolute IC70 [2]: 13 nM

Test System: CCRF-CEM-VCR
- absolute IC70 [1]: > 30000 nM
- absolute IC70 [2]: 73 nM

Test System: CNXF_498
- absolute IC70 [1]: > 30000 nM
- absolute IC70 [2]: 5620 nM

Test System: COLO-205
- absolute IC70 [1]: 17 nM
- absolute IC70 [2]: 14 nM

Test System: COLO-320
- absolute IC70 [1]: > 30000 nM
- absolute IC70 [2]: 2110 nM

Test System: COLO-678
- absolute IC70 [1]: > 30000 nM
- absolute IC70 [2]: 3000 nM

Test System: COLO-741
- absolute IC70 [1]: 38.9 nM
- absolute IC70 [2]: 524 nM

Test System: CXF_94
- absolute IC70 [1]: 167 nM
- absolute IC70 [2]: 554 nM

Test System: CXF_260
- absolute IC70 [1]: 194 nM
- absolute IC70 [2]: 324 nM

Test System: CXF_280
- absolute IC70 [1]: > 30000 nM
- absolute IC70 [2]: 1550 nM

Test System: CXF_1103
- absolute IC70 [1]: 427 nM
- absolute IC70 [2]: 11 nM

Test System: Caco-2
- absolute IC70 [1]: > 30000 nM
- absolute IC70 [2]: 4760 nM

Test System: Calu-1
- absolute IC70 [1]: > 30000 nM
- absolute IC70 [2]: 3440 nM

Test System: DAUDI
- absolute IC70 [1]: > 30000 nM
- absolute IC70 [2]: 10 nM

Test System: DETROIT562
- absolute IC70 [1]: > 30000 nM
- absolute IC70 [2]: 3090 nM

Test System: DIFI
- absolute IC70 [1]: 522 nM
- absolute IC70 [2]: 91 nM

Test System: DMS-273
- absolute IC70 [1]: > 30000 nM
- absolute IC70 [2]: 5120 nM

Test System: DND-39
- absolute IC70 [1]: > 30000 nM
- absolute IC70 [2]: 72 nM

Test System: DU-145
- absolute IC70 [1]: 1240 nM
- absolute IC70 [2]: 569 nM

Test System: DU-4475
- absolute IC70 [1]: 4 nM
- absolute IC70 [2]: 9 nM

Test System: DoTc2-4510
- absolute IC70 [1]: > 30000 nM
- absolute IC70 [2]: 260 nM

Test System: EFE-184
- absolute IC70 [1]: > 30000 nM
- absolute IC70 [2]: 3950 nM

Test System: EFO-21
- absolute IC70 [1]: > 30000 nM
- absolute IC70 [2]: 2140 nM

Test System: EFO-27
- absolute IC70 [1]: > 30000 nM
- absolute IC70 [2]: 724 nM

Test System: EGI-1
- absolute IC70 [1]: > 30000 nM
- absolute IC70 [2]: 693 nM

Test System: EJM
- absolute IC70 [1]: > 30000 nM
- absolute IC70 [2]: 2820 nM

Test System: EM-2
- absolute IC70 [1]: 192 nM
- absolute IC70 [2]: 277 nM

Test System: EVSA-T
- absolute IC70 [1]: > 30000 nM
- absolute IC70 [2]: 2240 nM

Test System: FADU
- absolute IC70 [1]: > 30000 nM
- absolute IC70 [2]: 2260 nM

Test System: FU97
- absolute IC70 [1]: > 30000 nM
- absolute IC70 [2]: 6600 nM

Test System: GP5d
- absolute IC70 [1]: > 30000 nM
- absolute IC70 [2]: 80.2 nM

Test System: GXA_3011
- absolute IC70 [1]: > 30000 nM
- absolute IC70 [2]: 97 nM

Test System: GXA_3013
- absolute IC70 [1]: > 30000 nM
- absolute IC70 [2]: 3280 nM

Test System: GXA_3023
- absolute IC70 [1]: 1440 nM
- absolute IC70 [2]: 69 nM

Test System: GXA_3067
- absolute IC70 [1]: 265 nM
- absolute IC70 [2]: 583 nM

Test System: GXA_3080
- absolute IC70 [1]: 117 nM
- absolute IC70 [2]: 114 nM

Test System: GXF_251
- absolute IC70 [1]: 3340 nM
- absolute IC70 [2]: 944 nM

Test System: GXF_1172
- absolute IC70 [1]: 1270 nM
- absolute IC70 [2]: 510 nM

Test System: GXF_23132
- absolute IC70 [1]: > 30000 nM
- absolute IC70 [2]: 20600 nM

Test System: H69AR
- absolute IC70 [1]: > 30000 nM
- absolute IC70 [2]: 688 nM

Test System: H-MESO-1
- absolute IC70 [1]: > 30000 nM
- absolute IC70 [2]: 5670 nM

Test System: HCC33
- absolute IC70 [1]: > 30000 nM
- absolute IC70 [2]: 2050 nM

Test System: HCC1937
- absolute IC70 [1]: > 30000 nM
- absolute IC70 [2]: 475 nM

Test System: HCC2998
- absolute IC70 [1]: 257 nM
- absolute IC70 [2]: 896 nM

Test System: HCT116
- absolute IC70 [1]: 84 nM
- absolute IC70 [2]: 51 nM

Test System: HCT-15
- absolute IC70 [1]: > 30000 nM
- absolute IC70 [2]: 1440 nM

Test System: HEC-1-A
- absolute IC70 [1]: > 30000 nM
- absolute IC70 [2]: 1580 nM

Test System: HH
- absolute IC70 [1]: > 30000 nM
- absolute IC70 [2]: 1370 nM

Test System: HL-60
- absolute IC70 [1]: 6 nM
- absolute IC70 [2]: 27 nM

Test System: HNXF_1853
- absolute IC70 [1]: 451 nM
- absolute IC70 [2]: 641 nM

Test System: HNXF_1859
- absolute IC70 [1]: 117 nM
- absolute IC70 [2]: 116 nM
